Assay results reported in patent US9359344B2, “Biaryl heterocycle substituted oxazolidinone antibacterial agents” (Xuanzhu Pharma Co., Ltd., priority 2011, dated 2016).

Assays:
[1] = test system: methicillin-resistant Staphylococcus aureus (MRSA); assay: In vitro antibacterial activity, standard agar dilution method, MRSA; format: cell-based; details: clinical strains
Text: (§1) Strains for test: methicillin-resistant Staphylococcus aureus (MRSA), methicillin-sensitive Staphylococcus aureus (MSSA), methicillin-resistant Staphylococcus epidermidis (MRSE), methicillin-sensitive Staphylococcus […] (MSSE), Enterococcus faecium, Enterococcus faecalis, streptococcus pneumoniae. Obtained from: Qianfoshan Hospital, First People's Hospital of Yunnan Province, Renji Hospital of Shanghai, People's Hospital of Jilin Province, Southwest Hospital.
(§2) Compounds 1, 3, 4, 6, 8, 11 of the present invention, prepared according to the process in each of the examples.
(§3) Control pharmaceutical: linezolid.
(§4) standard agar dilution method, reference was made to National Committee for Clinical Laboratory Standards. 2006. Methods for Dilution Antimicrobial Susceptibility Tests for Bacteria That Grow Aerobically, Approved Standard—Seventh Edition M7-A7.

[2] = test system: methicillin-resistant Staphylococcus epidermidis (MRSE); assay: In vitro antibacterial activity, standard agar dilution method, MRSE; format: cell-based; details: clinical strains
Text: as §1, §2, §3, §4

[3] = test system: methicillin-sensitive Staphylococcus aureus (MSSA); assay: In vitro antibacterial activity, standard agar dilution method, MSSA; format: cell-based; details: clinical strains
Text: as §1, §2, §3, §4

[4] = test system: methicillin-sensitive Staphylococcus aureus (MSSE); assay: In vitro antibacterial activity, standard agar dilution method, MSSE; format: cell-based, Staphylococcus epidermidis; details: clinical strains
Text: as §1, §2, §3, §4

Enterococcus faecalis = assay: In vitro antibacterial activity, standard agar dilution method, Enterococcus faecalis; format: cell-based; details: clinical strains
Text: as §1, §2, §3, §4

Enterococcus faecium = assay: In vitro antibacterial activity, standard agar dilution method, Enterococcus faecium; format: cell-based; details: clinical strains
Text: as §1, §2, §3, §4

streptococcus pneumoniae = assay: In vitro antibacterial activity, standard agar dilution method, Streptococcus pneumoniae; format: cell-based; details: clinical strains
Text: as §1, §2, §3, §4

[5] = test system: methicillin-sensitive (MSSE); assay: In vitro antibacterial activity, standard agar dilution method, MSSE; format: cell-based, Staphylococcus epidermidis; details: clinical strains
Text: as §1, §2, §3, §4

[6] = In vivo pharmacokinetics test on rat, I.V (intravenous push); details: male SD rat, 0.75 mg/kg, plasma, Compound 3 itself detected
Procedure: (§5) Compounds 2, 3, 5, 7, 9, prepared by the processes in the examples, dissolved in physiological saline.
(§6) Administration is performed as described in the table below, fasting without water deprivation for 16 hours before administration, providing food 4 hours after the administration.
I.V representing administration by intravenous push
(§7) I.V: blood collection was carried out according to the time points in the table below. At each time point about 100 μl whole blood was collected into a heparin sodium anticoagulation tube, centrifuged at 4° C. in a low temperature high speed centrifuge at 8000 rpm for 6 minutes. Plasma was separated and stored frozen in a freezer at −80° C.
(§8) Compound 5, 7, 9: 20 μl plasma was each taken and added into 100 μl of Torezolid (TR-700) solution in methanol at a concentration of 50 ng/ml, mixed under vortex for 5 minutes, centrifuged at 12000 rpm for 5 minutes; 100 μl of supernatant was taken and added into 100 μl water, mixed under vortex for 2 minutes, and analyzed by using LC-MS/MS.
(§9) Compound 2: 20 μl plasma was taken and added into 100 μl of Radezolid solution in methanol at a concentration of 50 ng/ml, mixed under vortex for 3 minutes, centrifuged at 12000 rpm for 5 minutes; 100 μl of supernatant was taken and added into 100 μl water, mixed under vortex for 2 minutes, and analyzed by using LC-MS/MS.
(§10) Compound 3: 20 μl plasma was taken and added into 800 μl of KBP-3957 methyl tert-butyl ether solution at a concentration of 10 ng/ml, mixed under vortex for 10 minutes, centrifuged at 12000 rpm for 5 minutes; 400 μl of supernatant was taken and added into a 96-well plate, purged to dryness by nitrogen, 200 μl of methanol:water (7:3) solution was added, mixed under vortex for 10 minutes, and analyzed by using LC-MS/MS.
(§11) Compound 2 is the prodrug of compound 1. Compound 5 is the prodrug of compound 4. Compound 7 is the prodrug of compound 6. Compound 9 is the prodrug of compound 8. Thus, PK data of active compounds, i.e. compounds 1, 4, 6, 8, were detected after administration, respectively.

[7] = In vivo pharmacokinetics test on rat, P.O (lavage); details: plasma, po, male SD rat, Compound 3 itself detected
Procedure: as §5, §6
P.O representing administration by lavage
as §7, §8, §9, §10, §11
Calculation Formula Absolute bioavailability F %=[AUC]INF(PO)*Dose(IV)/[AUC]INF(IV)*Dose(PO)

Row | SMILES | antibacterial activity MRSA [1] [µg/mL] | antibacterial activity MRSE [2] [µg/mL] | antibacterial activity MSSA [3] [µg/mL] | antibacterial activity MSSE [4] [µg/mL] | antibacterial activity Enterococcus faecalis (Enterococcus faecalis) [µg/mL] | antibacterial activity Enterococcus faecium (Enterococcus faecium) [µg/mL] | antibacterial activity Streptococcus pneumoniae (streptococcus pneumoniae) [µg/mL] | antibacterial activity MSSE [5] [µg/mL] | AUC(0-inf) [6] [ng·h/mL] | clearance [6] [mL/min/kg] | half-life [6] [h] | Vd ([6]; read-out: Vss) [L/kg] | bioavailability ([7]; P.O 1 mg/kg vs I.V 0.75 mg/kg, read-out: F % (absolute bioavailability)) [%] | AUC(0-inf) ([7]; P.O, 1 mg/kg) [ng·h/mL] | Cmax ([7]; P.O, 1 mg/kg) [ng/mL] | Tmax ([7]; P.O, 1 mg/kg) [h] | half-life ([7]; P.O, 1 mg/kg) [h]
1 | Cn1nnc(Nc2ccc(-c3ccc(N4C[C@H](CO)OC4=O)cc3F)cn2)n1 [Compound 1, (R)-3-(3-fluoro-4-(6-((2-methyl-2H-tetrazol-5-yl)amino)pyridin-3-yl)phenyl)-5-(hydroxylmethyl)oxazolidin-2-one] | 1 | 0.5 | 1 | 0.5 | 1 | 1 | 0.5 | – | – | – | – | – | – | – | – | – | –
2 | CC(=O)NC[C@H]1CN(c2ccc(-c3ccc(Nc4nnn(C)n4)nc3)c(F)c2)C(=O)O1 [Compound 3, (S)-N-((3-(3-fluoro-4-(6-((2-methyl-2H-tetrazol-5-yl)amino)pyridin-3-yl)phenyl)-2-oxooxazolidin-5-yl)methyl)acetamide] | 1 | 0.25 | 0.5 | – | 0.25 | 0.25 | 0.25 | 0.25 | 11600 | 1.17 | 5.29 | 0.37 | 45.5 | 7030 | 614 | 4 | 5.55
3 | Cn1nnnc1Nc1ccc(-c2ccc(N3C[C@H](CO)OC3=O)cc2F)cn1 [Compound 4, (R)-3-(3-fluoro-4-(6-((1-methyl-1H-tetrazol-5-yl)amino)pyridin-3-yl)phenyl)-5-(hydroxylmethyl)oxazolidin-2-one] | 0.25 | 0.125 | 0.25 | 0.125 | 0.25 | 0.25 | 1 | – | – | – | – | – | – | – | – | – | –
4 | CN(c1ccc(-c2ccc(N3C[C@H](CO)OC3=O)cc2F)cn1)c1nnnn1C [Compound 6, (R)-3-(3-fluoro-4-(6-(methyl(1-methyl-1H-tetrazol-5-yl)amino)pyridin-3-yl)phenyl)-5-(hydroxylmethyl)oxazolidin-2-one] | 0.5 | 0.5 | 0.5 | 0.5 | 1 | 1 | 0.5 | – | – | – | – | – | – | – | – | – | –
5 | CN(c1ccc(-c2ccc(N3C[C@H](CO)OC3=O)cc2F)cn1)c1nnn(C)n1 [Compound 8, (R)-3-(3-fluoro-4-(6-(methyl(2-methyl-2H-tetrazol-5-yl)amino)pyridin-3-yl)phenyl)-5-(hydroxylmethyl)oxazolidin-2-one] | 1 | 0.5 | 1 | 0.5 | 1 | 1 | 0.5 | – | – | – | – | – | – | – | – | – | –
6 | Cn1cc(Nc2ccc(-c3ccc(N4C[C@H](CO)OC4=O)cc3F)cn2)nn1 [Compound 11, (R)-3-(3-fluoro-4-(6-((1-methyl-1H-1,2,3-triazol-4-yl)amino)pyridin-3-yl)phenyl)-5-(hydroxylmethyl)oxazolidin-2-one] | 1 | 1 | 1 | 0.5 | 2 | 2 | 1 | – | – | – | – | – | – | – | – | – | –
7 | CC(=O)NC[C@H]1CN(c2ccc(N3CCOCC3)c(F)c2)C(=O)O1 [linezolid, Linezolid, reference compound] | 4 | 2 | 2 | 2 | 4 | 4 | 2 | – | – | – | – | – | – | – | – | – | –
